Results published in article PMC10127588 (mBio, 2023).
“Also recorded” adds a separate entry of the source. Like-named read-outs stand apart in the source and are kept apart here.

Tests used:
Mpk1 [1] = target: T1, Mpk1 (Fusarium oxysporum, UniProt X0BN28); test: biochemical; type: binding
Mps1 [2] = target: T2, Mps1 (Pyricularia oryzae, UniProt G4N374); type: biochemical, Magnaporthe oryzae
M. oryzae [3] = system: M. oryzae; set-up: species or system Magnaporthe oryzae; conditions: in vivo
Mpk1 [4] = target: T1, Mpk1; type: biochemical
M. oryzae [5] = type: cell-based
Pmk1 = Pmk1 (Pyricularia oryzae, UniProt G4N0Z0); type: binding, Magnaporthe oryzae
Pmk1, sequence (G4N0Z0 whole entry, looked up): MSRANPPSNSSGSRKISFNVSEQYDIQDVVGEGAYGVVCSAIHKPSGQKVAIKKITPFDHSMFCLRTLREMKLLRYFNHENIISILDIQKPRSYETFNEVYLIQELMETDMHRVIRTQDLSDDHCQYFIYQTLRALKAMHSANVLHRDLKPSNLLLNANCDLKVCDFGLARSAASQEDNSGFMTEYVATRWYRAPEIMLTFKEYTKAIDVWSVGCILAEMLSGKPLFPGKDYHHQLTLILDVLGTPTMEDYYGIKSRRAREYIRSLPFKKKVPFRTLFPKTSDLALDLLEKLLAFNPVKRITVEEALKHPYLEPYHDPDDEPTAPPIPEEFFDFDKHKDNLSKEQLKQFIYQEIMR

M. oryzae [6] = type: cell-based; remark: listed apart in the source
M. oryzae conidia [7] = type: cell-based, Magnaporthe oryzae
M. oryzae conidia [8] = type: cell-based, Magnaporthe oryzae; remark: listed apart in the source
Mps1 [9] = target: T2, Mps1; test: biochemical; type: binding, Magnaporthe oryzae
M. oryzae [10] = type: cell-based; remark: listed apart in the source
M. oryzae [11] = system: M. oryzae; set-up: species or system Magnaporthe oryzae; conditions: in vivo; remark: listed apart in the source
M. oryzae conidia [12] = conditions: cited from earlier work
Itk = conditions: read-out: affinity; cited from earlier work
Src = conditions: read-out: affinity; cited from earlier work

T2 sequence (G4N374 whole entry, looked up): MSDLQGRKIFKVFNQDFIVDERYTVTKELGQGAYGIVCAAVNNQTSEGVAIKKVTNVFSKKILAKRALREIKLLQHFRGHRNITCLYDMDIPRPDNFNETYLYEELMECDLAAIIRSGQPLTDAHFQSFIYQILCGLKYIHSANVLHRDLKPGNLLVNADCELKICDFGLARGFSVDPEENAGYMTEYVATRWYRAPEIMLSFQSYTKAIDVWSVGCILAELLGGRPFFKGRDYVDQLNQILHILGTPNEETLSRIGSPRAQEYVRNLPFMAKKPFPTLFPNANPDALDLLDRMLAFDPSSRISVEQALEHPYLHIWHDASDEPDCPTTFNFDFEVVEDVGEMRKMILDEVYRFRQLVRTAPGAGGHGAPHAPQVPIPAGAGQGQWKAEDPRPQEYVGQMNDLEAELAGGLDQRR

In the case of CNC(=O)[C@H](Cc1c[nH]c2ccccc12)NC(=O)c1ccc2cncc(-c3cc(OC(F)(F)F)ccc3OC)c2n1 [A378-0], the Kd (Mpk1 [1]) is reported as 70.3 µM, the “kinase activity of Mps1” value (Mps1 [2]) is reported as “suppressed the kinase activity of Mps1” and the “concentration at which conidia were completely nonpathogenic” value (M. oryzae [3]) is reported as 150 µg/mL. The “concentration from which inhibition of M. oryzae virulence is observed” value (M. oryzae [3]) was 50 µg/mL, the “kinase activity of Mpk1” value (Mpk1 [4]) was “can inhibit the kinase activity of Mpk1” and the “autolysis on the culture dish” value (M. oryzae [5]) was “progressive autolysis was observed”. For the same compound, the “binding to Pmk1” value (Pmk1) was “nonspecific binding”, the “sensitivity to lysing enzyme (cell wall integrity)” value (M. oryzae [6]) was “readily reduced to spheroplasts” and the “appressorium penetration (penetration peg formation)” value (M. oryzae conidia [7]) was “did not form a penetration peg”. The “germination and appressorium formation of conidia” value (M. oryzae conidia [8]) was “could not inhibit the germination and appressorium formation”, the Kd (Mps1 [9]) was 69.2 µM and the “conidiation reduced to” value (M. oryzae [10]) was “about 40%”. The “virulence on barley leaves” value (M. oryzae [11]) was “exhibits inhibition of M. oryzae virulence on barley leaves”.

In the case of CC(C)OC(=O)C(C(=O)OC(C)C)=C1SCCS1 [Isoprothiolane, diisopropyl 2-(1,3-dithiolan-2-ylidene)malonate], the “concentration that can inhibit appressorium penetration” value (M. oryzae conidia [12]) is given as 20 µg/mL.

In the case of adenylyl imidodiphosphate [AMP-PNP], the Kd (Itk) is listed as 7900 µM, the Kd (Src) is listed as 2540 µM and the “binding to Mps1” value (Mps1 [9]) is listed as “does not interact with Mps1; also recorded: no binding was detected”. For the same compound, the Kd (Mps1 [9]; read-out: KD) was < 500 µM.
